Laboratory results: EP0123528B1, “Pharmaceutical composition for the treatment of hair loss” (Mortimer, Christopher Harry, Dr., priority 1983, dated 1984)
One block for each compound: values may come before it.

Key:
common baldness in men = assay: Unit Area Trichogram (hair density); assay type: in vivo; conditions: for producing hair growth in common baldness: alone: oestradiol benzoate 0.1%, medroxyprogesterone acetate 0.1%, 3,3-,5-triiodo-L-thyronine 20 pg in 3 ml of solution, or any two of the three
[1] = Semen analysis during treatment; assay type: in vivo, patient; conditions: after 6 months of systemic treatment
Method: Initially […] began treatment with medroxyprogesterone acetate starting with 5 mg daily increasing to 40 mg daily at 6 months. At this time the following hormone results were obtained: After 6 months of the same dose of systemic medroxyprogesterone acetate plus Trichogen II the following results were obtained: […]

[2] = Hormone results during treatment; assay type: in vivo; conditions: patient, after 6 months of systemic treatment
Method: Initially […] began treatment with medroxyprogesterone acetate starting with 5 mg daily increasing to 40 mg daily at 6 months.
At this time the following hormone results were obtained:
After 6 months of the same dose of systemic medroxyprogesterone acetate plus Trichogen II the following results were obtained: […]

Structure (SMILES): C[C@]12CC[C@@H]3c4ccc(OC(=O)c5ccccc5)cc4CC[C@H]3[C@@H]1CC[C@@H]2O [oestradiol benzoate]
- producing hair growth in common baldness (common baldness in men; topical): not effective

Structure (SMILES): N[C@@H](Cc1cc(I)c(Oc2ccc(O)c(I)c2)c(I)c1)C(=O)O [3,3-,5-triiodo-L-thyronine]
- producing hair growth in common baldness (common baldness in men; topical): not effective

- Semen analysis: Total count ([1]; patient (previous orchidopexy), n greater than 80 millions): 5 millions
- Semen analysis: Motility ([1]; patient, n greater than 60%): 10%
- Semen analysis: Abnormal forms ([1]; patient, n up to 25%): 35%
Structure (SMILES): CC(=O)O[C@]1(C(C)=O)CC[C@H]2[C@@H]3C[C@H](C)C4=CC(=O)CC[C@]4(C)[C@H]3CC[C@@]21C [medroxyprogesterone acetate]
- Testosterone ([2]; 5 mg daily increasing to 40 mg daily, n 10—32): 27.0 nmol/L
- Dihydrotestosterone ([2]; 5 to 40 mg daily, n 0.7—2.7): 2.1 nmol/L
- SHBG ([2]; 5 to 40 mg daily, n 18—40): 36.0 nmol/L
- Oestradiol ([2]; 5 to 40 mg daily, n 50—180): 171.0 pmol/L
- 17 Alpha hydroxyprogesterone ([2]; n 0.6—6.0): 10.1 nmol/L
- Androstenedione ([2]; n 3.1—10.0): 4.9 nmol/L
- Dehydroepiandrosterone sulphate (DHEAS) ([2]; n 5—9): 9.4 µmol/L
- Meaningful hair density (hairs greater than 40 µm in diameter/cm^2), Frontal (common baldness in men; patient, after 6 months of systemic treatment, before treatment 215, n 232—340): 179 (n 232—340) hairs/cm^2
- Meaningful hair density (hairs greater than 40 µm in diameter/cm^2), Occipital (common baldness in men; patient, after 6 months of systemic treatment, before treatment 246, n 213—317): 271 (n 213—317) hairs/cm^2
- Total hair density, Occipital (common baldness in men; patient, after 6 months of systemic treatment, before treatment 251, n 261—356): 280 (n 261—356) hairs/cm^2
- Total hair density, Frontal (common baldness in men; patient, after 6 months of systemic treatment, before treatment 263, n 256—393): 248 (n 256—393) hairs/cm^2
- producing hair growth in common baldness (common baldness in men; topical): not effective

Structure (SMILES): N[C@H](Cc1cc(I)c(Oc2ccc(O)c(I)c2)c(I)c1)C(=O)O [3,3-,5-triiodo-D-thyronine free acid, 3,3-,5-Triiodo-D-thyronine free acid]
- substitute for the -L-form of 3,3-,5-triiodothyronine (common baldness in men; topical, in any concentration): not an effective substitute
